# According to PubChem BioAssay AID1259407 (Chemical Carcinogenesis Research Information System (CCRIS), 2018):
# Calls of active or inactive are those of the source. How the calls were made is not given here.
# System: CCRIS mutagenicity, Ames/micronucleus/aberration tests
# Experiment: CCRIS mutagenicity studies
# [1] = Test System: AMES SALMONELLA TYPHIMURIUM, Strain/Indicator: TA98, Metabolic Activation: NONE, Method: STANDARD PLATE
# [2] = Test System: AMES SALMONELLA TYPHIMURIUM, Strain/Indicator: TA100, Metabolic Activation: NONE, Method: STANDARD PLATE
# [3] = Test System: AMES SALMONELLA TYPHIMURIUM, Strain/Indicator: TA1535, Metabolic Activation: NONE, Method: STANDARD PLATE
# [4] = Test System: AMES SALMONELLA TYPHIMURIUM, Strain/Indicator: TA1537, Metabolic Activation: NONE, Method: STANDARD PLATE
# [5] = Test System: AMES SALMONELLA TYPHIMURIUM, Strain/Indicator: TA1538, Metabolic Activation: NONE, Method: STANDARD PLATE
# [6] = Test System: AMES SALMONELLA TYPHIMURIUM, Strain/Indicator: TA98, Metabolic Activation: RAT, LIVER, S-9, AROCLOR 1254, Method: STANDARD PLATE
# [7] = Test System: AMES SALMONELLA TYPHIMURIUM, Strain/Indicator: TA98, Metabolic Activation: NONE, Method: PREINCUBATION
# [8] = Test System: AMES SALMONELLA TYPHIMURIUM, Strain/Indicator: TA100, Metabolic Activation: NONE, Method: PREINCUBATION
smiles,measurement,setting,value
CCC(=O)Oc1ccc(/C(CC)=C(\CC)c2ccc(OC(=O)CC)cc2)cc1,mutagenic call,[1],inactive; negative
same,mutagenic call,"Test System: AMES SALMONELLA TYPHIMURIUM, Strain/Indicator: TA98, Metabolic Activation: RAT, LIVER, S-9, Method: STANDARD PLATE",inactive; negative
same,mutagenic call,[2],inactive; negative
same,mutagenic call,"Test System: AMES SALMONELLA TYPHIMURIUM, Strain/Indicator: TA100, Metabolic Activation: RAT, LIVER, S-9, Method: STANDARD PLATE",inactive; negative
same,mutagenic call,[3],inactive; negative
same,mutagenic call,"Test System: AMES SALMONELLA TYPHIMURIUM, Strain/Indicator: TA1535, Metabolic Activation: RAT, LIVER, S-9, Method: STANDARD PLATE",inactive; negative
same,mutagenic call,[4],inactive; negative
same,mutagenic call,"Test System: AMES SALMONELLA TYPHIMURIUM, Strain/Indicator: TA1537, Metabolic Activation: RAT, LIVER, S-9, Method: STANDARD PLATE",inactive; negative
same,mutagenic call,[5],inactive; negative
same,mutagenic call,"Test System: AMES SALMONELLA TYPHIMURIUM, Strain/Indicator: TA1538, Metabolic Activation: RAT, LIVER, S-9, Method: STANDARD PLATE",inactive; negative
N=c1ccc2nc3ccc(N)cc3sc-2c1,mutagenic call,[1],active; positive
same,mutagenic call,[6],active; positive
same,mutagenic call,[3],inactive; negative
same,mutagenic call,"Test System: AMES SALMONELLA TYPHIMURIUM, Strain/Indicator: TA1535, Metabolic Activation: RAT, LIVER, S-9, AROCLOR 1254, Method: STANDARD PLATE",inactive; negative
same,mutagenic call,[4],inactive; negative
same,mutagenic call,"Test System: AMES SALMONELLA TYPHIMURIUM, Strain/Indicator: TA1537, Metabolic Activation: RAT, LIVER, S-9, AROCLOR 1254, Method: STANDARD PLATE",inactive; negative
same,mutagenic call,[5],active; positive
same,mutagenic call,"Test System: AMES SALMONELLA TYPHIMURIUM, Strain/Indicator: TA1538, Metabolic Activation: RAT, LIVER, S-9, AROCLOR 1254, Method: STANDARD PLATE",active; positive
CCCCN=NC(C)(C)OO,mutagenic call,"Test System: AMES SALMONELLA TYPHIMURIUM, Strain/Indicator: TA1535, Metabolic Activation: NONE",active; positive
same,mutagenic call,"Test System: E. COLI, Strain/Indicator: WP2 (HCR-), Metabolic Activation: NONE",active; positive
Oc1ccc(Cl)cc1Cl,mutagenic call,"End Point: IN VITRO CHROMOSOMAL ABERRATIONS, Test System: CHO CELLS, Metabolic Activation: RAT, LIVER, S-9, AROCLOR 1254",inactive; negative
same,mutagenic call,"End Point: IN VITRO CHROMOSOMAL ABERRATIONS, Test System: CHO CELLS, Metabolic Activation: RAT, LIVER, S-9, PHENOBARBITAL AND BETA-NAPHTHOFLAVONE",active; positive
same,mutagenic call,"End Point: IN VITRO CHROMOSOMAL ABERRATIONS, Test System: TK6 HUMAN LYMPHOBLASTS, Metabolic Activation: NONE",inactive; negative; authors reported the results as equivocal
same,mutagenic call,"Test System: AMES SALMONELLA TYPHIMURIUM, Strain/Indicator: TA98, Metabolic Activation: HAMSTER, LIVER, S-9, AROCLOR 1254, Method: PREINCUBATION",inactive; negative
same,mutagenic call,[7],inactive; negative
same,mutagenic call,"Test System: AMES SALMONELLA TYPHIMURIUM, Strain/Indicator: TA98, Metabolic Activation: RAT, LIVER, S-9, AROCLOR 1254, Method: PREINCUBATION",inactive; negative
same,mutagenic call,"Test System: AMES SALMONELLA TYPHIMURIUM, Strain/Indicator: TA98, Metabolic Activation: S-9, Method: STANDARD PLATE",inactive; negative
same,mutagenic call,"Test System: AMES SALMONELLA TYPHIMURIUM, Strain/Indicator: TA100, Metabolic Activation: HAMSTER, LIVER, S-9, AROCLOR 1254, Method: PREINCUBATION",inactive; negative
same,mutagenic call,[8],inactive; negative
same,mutagenic call,"Test System: AMES SALMONELLA TYPHIMURIUM, Strain/Indicator: TA100, Metabolic Activation: RAT, LIVER, S-9, AROCLOR 1254, Method: PREINCUBATION",inactive; negative
same,mutagenic call,"Test System: AMES SALMONELLA TYPHIMURIUM, Strain/Indicator: TA100, Metabolic Activation: S-9, Method: STANDARD PLATE",inactive; negative
same,mutagenic call,"Test System: AMES SALMONELLA TYPHIMURIUM, Strain/Indicator: TA1535, Metabolic Activation: NONE, Method: PREINCUBATION",inactive; negative
same,mutagenic call,"Test System: AMES SALMONELLA TYPHIMURIUM, Strain/Indicator: TA1535, Metabolic Activation: RAT, LIVER, S-9, AROCLOR 1254, Method: PREINCUBATION",inactive; negative
same,mutagenic call,"Test System: AMES SALMONELLA TYPHIMURIUM, Strain/Indicator: TA1537, Metabolic Activation: HAMSTER, LIVER, S-9, AROCLOR 1254, Method: PREINCUBATION",inactive; negative
same,mutagenic call,"Test System: AMES SALMONELLA TYPHIMURIUM, Strain/Indicator: TA1537, Metabolic Activation: NONE, Method: PREINCUBATION",inactive; negative
same,mutagenic call,"Test System: AMES SALMONELLA TYPHIMURIUM, Strain/Indicator: TA1537, Metabolic Activation: RAT, LIVER, S-9, AROCLOR 1254, Method: PREINCUBATION",inactive; negative
same,mutagenic call,"Test System: AMES SALMONELLA TYPHIMURIUM, Strain/Indicator: YG1021, Metabolic Activation: S-9, Method: STANDARD PLATE",inactive; negative
same,mutagenic call,"Test System: AMES SALMONELLA TYPHIMURIUM, Strain/Indicator: YG1024, Metabolic Activation: S-9, Method: STANDARD PLATE",inactive; negative
same,mutagenic call,"Test System: AMES SALMONELLA TYPHIMURIUM, Strain/Indicator: YG1026, Metabolic Activation: S-9, Method: STANDARD PLATE",inactive; negative
same,mutagenic call,"Test System: AMES SALMONELLA TYPHIMURIUM, Strain/Indicator: YG1029, Metabolic Activation: S-9, Method: STANDARD PLATE",inactive; negative
same,mutagenic call,"Test System: CHINESE HAMSTER V-79, Strain/Indicator: V-79/6-THIOGUANINE, Metabolic Activation: NONE, Method: STANDARD PLATE",inactive; negative
same,mutagenic call,"Test System: MOUSE LYMPHOMA, Strain/Indicator: L5178Y (TK+/TK-), Metabolic Activation: NONE, Method: SUSPENSION/PLATE",active; positive
ClCCBr,mutagenic call,"End Point: IN VITRO CHROMOSOMAL ABERRATIONS, Test System: CHL CELLS, Metabolic Activation: RAT, LIVER, S-9, SODIUM PHENOBARBITAL AND 5,6-BENZOFLAVONE",active; positive (structural changes)
same,mutagenic call,"Test System: AMES SALMONELLA TYPHIMURIUM, Strain/Indicator: TA1530, Metabolic Activation: NONE, Method: SPOT",active; positive
same,mutagenic call,"Test System: AMES SALMONELLA TYPHIMURIUM, Strain/Indicator: TA1535, Metabolic Activation: NONE, Method: SPOT",active; positive
Cc1cccnc1,mutagenic call,"Test System: AMES SALMONELLA TYPHIMURIUM, Strain/Indicator: TA97, Metabolic Activation: NONE, Method: STANDARD PLATE",inactive; negative
same,mutagenic call,"Test System: AMES SALMONELLA TYPHIMURIUM, Strain/Indicator: TA97, Metabolic Activation: RAT, LIVER, S-9, AROCLOR 1254, Method: STANDARD PLATE",inactive; negative
same,mutagenic call,[1],inactive; negative
same,mutagenic call,[6],inactive; negative
same,mutagenic call,[2],inactive; negative
same,mutagenic call,"Test System: AMES SALMONELLA TYPHIMURIUM, Strain/Indicator: TA100, Metabolic Activation: RAT, LIVER, S-9, AROCLOR 1254, Method: STANDARD PLATE",inactive; negative
same,mutagenic call,"Test System: AMES SALMONELLA TYPHIMURIUM, Strain/Indicator: TA102, Metabolic Activation: NONE, Method: STANDARD PLATE",inactive; negative
same,mutagenic call,"Test System: AMES SALMONELLA TYPHIMURIUM, Strain/Indicator: TA102, Metabolic Activation: RAT, LIVER, S-9, AROCLOR 1254, Method: STANDARD PLATE",inactive; negative
O=c1ccc2c(cc3ccc4cccc5ccc2c3c45)c1=O,mutagenic call,"Test System: AMES SALMONELLA TYPHIMURIUM, Strain/Indicator: TA97A, Metabolic Activation: NONE, Method: PREINCUBATION",active; positive
same,mutagenic call,[7],inactive; negative
same,mutagenic call,[8],inactive; negative
same,mutagenic call,"Test System: AMES SALMONELLA TYPHIMURIUM, Strain/Indicator: TA102, Metabolic Activation: NONE, Method: PREINCUBATION",inactive; negative
same,mutagenic call,"Test System: AMES SALMONELLA TYPHIMURIUM, Strain/Indicator: TA104, Metabolic Activation: NONE, Method: PREINCUBATION",inactive; negative
C1=Cc2c3cc4ccccc4cc3cc3cccc1c23,mutagenic call,[1],active; positive
same,mutagenic call,"Test System: AMES SALMONELLA TYPHIMURIUM, Strain/Indicator: TA98, Metabolic Activation: RAT, LIVER, S-9, AROCLOR 1254 (0.127 OR 1.27 MG S-9 PROTEIN), Method: STANDARD PLATE",active; positive
